Laboratory results: patent US4495195A, “Xanthine oxidase inhibiting 3(5)-phenyl-substituted-5(3)-pyrazole-carboxylic acid derivatives, compositions, and methods of use” (Eli Lilly and Company, priority 1982, dated 1985)
Read-outs that look alike come from different tables or passages of the source.

What was measured:
xanthine oxidase [1] = target: T1, xanthine oxidase (Bos taurus, UniProt P80457); test: in vitro xanthine oxidase assay (rate of uric acid formation from xanthine); format: biochemical
T1 construct: purchased Sigma Chemical Company, St. Louis, Missouri
T1 sequence (P80457 whole entry): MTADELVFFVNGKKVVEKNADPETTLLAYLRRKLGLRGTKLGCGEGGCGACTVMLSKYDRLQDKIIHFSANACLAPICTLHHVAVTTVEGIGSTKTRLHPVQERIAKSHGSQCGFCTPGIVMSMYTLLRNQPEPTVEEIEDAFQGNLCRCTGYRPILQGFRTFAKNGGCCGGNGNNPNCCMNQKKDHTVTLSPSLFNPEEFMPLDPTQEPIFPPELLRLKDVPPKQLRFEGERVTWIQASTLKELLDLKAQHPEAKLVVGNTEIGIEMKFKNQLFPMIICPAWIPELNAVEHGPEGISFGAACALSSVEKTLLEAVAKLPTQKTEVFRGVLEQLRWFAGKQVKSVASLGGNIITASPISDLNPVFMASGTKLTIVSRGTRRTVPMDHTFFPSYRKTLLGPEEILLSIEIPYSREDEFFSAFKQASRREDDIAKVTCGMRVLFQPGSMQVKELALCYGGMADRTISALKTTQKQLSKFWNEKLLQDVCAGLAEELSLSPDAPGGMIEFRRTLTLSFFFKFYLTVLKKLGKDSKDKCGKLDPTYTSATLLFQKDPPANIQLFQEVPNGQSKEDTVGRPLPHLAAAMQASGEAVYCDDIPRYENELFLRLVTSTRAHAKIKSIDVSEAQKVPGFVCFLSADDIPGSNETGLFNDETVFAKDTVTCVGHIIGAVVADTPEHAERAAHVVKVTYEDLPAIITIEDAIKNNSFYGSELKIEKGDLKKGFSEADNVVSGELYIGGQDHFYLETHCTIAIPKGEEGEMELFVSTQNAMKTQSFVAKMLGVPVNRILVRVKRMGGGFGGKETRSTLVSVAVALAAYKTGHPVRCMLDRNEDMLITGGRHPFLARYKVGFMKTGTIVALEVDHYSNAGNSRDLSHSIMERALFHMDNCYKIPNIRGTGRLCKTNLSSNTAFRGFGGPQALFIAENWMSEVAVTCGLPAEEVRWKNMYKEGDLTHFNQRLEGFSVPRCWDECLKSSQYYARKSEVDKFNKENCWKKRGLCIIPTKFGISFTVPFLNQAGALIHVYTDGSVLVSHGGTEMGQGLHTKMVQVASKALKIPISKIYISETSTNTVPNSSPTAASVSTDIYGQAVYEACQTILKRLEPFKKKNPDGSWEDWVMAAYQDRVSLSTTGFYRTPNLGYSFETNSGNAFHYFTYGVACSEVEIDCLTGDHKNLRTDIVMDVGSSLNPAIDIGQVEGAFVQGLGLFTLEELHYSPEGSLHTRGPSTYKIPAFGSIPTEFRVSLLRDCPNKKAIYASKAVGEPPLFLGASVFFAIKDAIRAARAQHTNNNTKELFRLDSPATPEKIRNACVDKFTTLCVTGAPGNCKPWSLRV
Description: Xanthine oxidase activity was measured at room temperature by the rate of uric acid formation from xanthine substrate. In a total volume of 1 ml., the incubation mixture contained 50 micromoles of potassium phosphate buffer at pH 7.4, 0.05 micromoles of xanthine and 0.01 units of enzyme preparation (chromatographically purified milk xanthine oxidase, grade III, obtained from Sigma Chemical Company, St. Louis, Missouri). The absorbence change at 292 nm was recored by a Gilford recording spectrophotometer and the uric acid formed was calculated using an extinction coefficient of 12 mM^-1 cm^-1 at 292 nm.

oral LD50 in mice = settings: mouse, in vivo; for selectivity ratio: LD50 oral mice / ED50 oral rats; for LD50: oral, mice, with standard error, read-out: LD50 (dose which kills one-half of the animals)
Text: The compounds represented by the above formula are also relatively non-toxic. In column 3 of Table IV are listed the oral LD50 for mice in mg. per kg. (with standard error) for each of the compounds of column 1 (dose which kills one-half of the animals). Finally, column 4 in Table IV gives the ratio of LD50 to ED50. It will be seen that the ratio of the LD50 to the ED50 is quite high, giving a substantial margin of safety for using the compounds of formulas Ia, Ib, and Ic in treating gout in mammals, particularly humans.

[2] = test system: plasma level of uric acid; test: in vivo lowering of plasma uric acid, oral, rats; settings: Rattus norvegicus, read-out: ED50 (dose which reduces plasma level of uric acid by one-half)
Description: (§1) Compounds corresponding to formulas Ia, Ib and Ic above are active in vivo in lowering plasma uric acid levels. […] The first method, the spectrofluorometric method, was modified from the precedure of Sumi et al., Clinica. Chimica. Acta., 73, 233 (1976). Rats were sacrificed by decapitation and their blood collected into vacutainer tubes containing heparin via heparinized glass funnels. The blood was centrifuged for 8 minutes at 4000 rpm after which time the plasma was separated and diluted 1:1 with water. Plasma protein was precipitated by addition of acetic acid to a final concentration of 0.007 molar and boiling the resulting mixture for 5 minutes in Sorval tubes. Clear deprotein plasma was obtained after centrifugation of the resulting plasma for 30 minutes at 25,000 rpm. Uric acid was assayed as follows: 0.2 ml. aliquots of the clear deproteinized plasma were mixed with 120 λ of uricase (0.045 mu/ml.) and incubated for 30 minutes at 27° C. 1.0 ml. of a p-hydroxyphenylacetic acid buffer was added. Samples obtained from feeding rats or dogs serial doses of the compound under test were incubated with the above buffer solution for 30 minutes at 27° C. Fluoroescence of the solution was measured in quartz tubes using an Aminco Bowman-Spectrofluorimeter having excitation of 321 nm and emission at 412 nm. Five uric acid standards from 6-30 micromolar were assayed for each test and each standard yielded a linear curve.
The second method is called the HPLC-EC Detection method. In this procedure, blood plasma was collected from rats as described above and from dogs in heparinized syringes from the cefalic vein in the forearm. The blood plasma was centrifuged with Sure-Sep to separate plasma. Deproteinized plasma was prepared in each instance by first diluting one volume of plasma with one volume of an internal standard solution, 4 mcg./ml., and then addition of two volumes of 5% trichloroacetic acid. Standards were added to control plasma in the range of 0-8 mcg./ml. of uric acid. Samples obtained by feeding graded doses of the drug under test to dogs or rats were mixed for 30 seconds and then centrifuged in an Eppendorf microcentrifuge. Supernates were diluted 1:10 in column buffer and assayed for uric acid. Internal standards used were 3-methyluric acid for the rat samples and 3,9-dimethyluric acid for dog samples. Assays were performed as follows using a Bioanlaytic Systems Inc. LC-44 analyser and an electrochemical detector system based on an Altex model 110 pump coupled with a CP-O carbon paste electrodetector. […] Uric acid levels were then calculated from peak areas by computer analysis. […]

xanthine oxidase [3] = test: oral administration in rats, in vivo inhibition of xanthine oxidase (Table V); set-up: species or system rat
Description: as §1, with “Samples obtained from feeding rats or dogs serial doses of the compound under test were incubated with the above buffer solution for 30 minutes at 27° C.” left out, “Five uric acid standards from 6-30 micromolar were assayed for each test and each standard yielded a linear curve.” left out
The second method is called the HPLC-EC Detection method. […] Uric acid levels were then calculated from peak areas by computer analysis. […]

[4] = milk xanthine oxidase, 0.05 micromoles xanthine in 1 ml, pH 7.4, room temperature, read-out: I50 (concentration of drug which inhibits 50% of the oxidation of xanthine to uric acid) (converted)

IC50 (xanthine oxidase [1]; [4]) | SMILES | further results
0.0711 µM | Cn1nc(-c2cccc(Br)c2)cc1C(=O)O [R=3-Br, R^1=H, 1-Methyl-3-(3-bromophenyl)pyrazole-5-carboxylic acid] | 
0.39 µM | O=C(O)c1cc(-c2cccc(C(F)(F)F)c2)n[nH]1 [R=3-CF3, X=H, 3(5)-(3-trifluoromethylphenyl)pyrazole-5(3)-carboxylic acid] | 
0.0448 µM | O=C(O)c1[nH]nc(-c2cccc(C(F)(F)F)c2)c1O [R=3-CF3, X=OH, 3(5)-(3-Trifluoromethylphenyl)-4-hydroxypyrazole-5(3)-carboxylic acid] | 
1.39 µM | Cc1cccc(-c2cc(C(=O)O)n(C)n2)c1 [R=3-CH3, R^1=H, 1-Methyl-3-(m-tolyl)pyrazole-5-carboxylic acid] | 
0.177 µM | Cn1nc(-c2ccc(Cl)c(Cl)c2)cc1C(=O)O [R=3-Cl, R^1=4-Cl, 1-Methyl-3-(3,4-dichlorophenyl)pyrazole-5-carboxylic acid] | 
0.304 µM | Cn1nc(-c2cccc(Cl)c2)cc1C(=O)O [R=3-Cl, R^1=H, 1-Methyl-3-(3-chlorophenyl)pyrazole-5-carboxylic acid] | 
0.244 µM | COc1ccc(-c2cc(C(=O)O)n(C)n2)cc1OC [R=3-OCH3, R^1=4-OCH3, 1-Methyl-3-(3,4-dimethyoxyphenyl)pyrazole-5-carboxylic acid] | 
0.416 µM | Cn1nc(-c2ccc(Br)cc2)cc1C(=O)O [R=4-Br, R^1=H, 1-methyl-3-(4-bromophenyl)pyrazole-5-carboxylic acid] | 
0.426 µM | Cn1nc(-c2ccc(C(F)(F)F)cc2)cc1C(=O)O [R=4-CF3, R^1=H, 1-methyl-3-(4-trifluoromethylphenyl)pyrazole-5-carboxylic acid] | 
1.69 µM | Cn1nc(-c2ccc(Cl)cc2)cc1C(=O)O [R=4-Cl, R^1=H, 1-Methyl-3-(4-chlorophenyl)pyrazole-5-carboxylic acid] | 
1.58 µM | O=C(O)c1[nH]nc(-c2ccc(F)cc2)c1O [R=4-F, X=OH] | 
0.31 µM | COc1ccc(-c2cc(C(=O)O)n(C)n2)cc1 [R=4-OCH3, R^1=H, 1-Methyl-3-(4-methoxyphenyl)pyrazole-5-carboxylic acid] | 
0.726 µM | COc1ccc(-c2n[nH]c(C(=O)O)c2O)cc1 [R=4-OMe, X=OH] | 
0.0665 µM | Cn1nc(-c2cccc(Br)c2)c(Cl)c1C(=O)O [R=Br, X=Cl, 1-Methyl-3-(3-bromophenyl)-4-chloropyrazole-5-carboxylic acid] | 
 | Cn1nc(-c2cccc(C(F)(F)F)c2)c(Cl)c1C(=O)O [R=CF3, X=Cl, 1-Methyl-3-(3-trifluoromethylphenyl)-4-chloropyrazole-5-carboxylic acid] | selectivity ratio (oral LD50 in mice): 38; LD50 (oral LD50 in mice): 322 ± 38 mg/kg; IC50 (xanthine oxidase [1]): 0.046 µM; ED50 [2]: 8.5 mg/kg
0.0302 µM | Cn1nc(-c2cccc(C(F)(F)F)c2)c(N)c1C(=O)O [R=CF3, X=NH2, 1-Methyl-3-(3-trifluoromethylphenyl)-4-aminopyrazole-5-carboxylic acid] | ED50 [2]: 23 mg/kg
0.028 µM | Cn1nc(-c2cccc(C(F)(F)F)c2)c(O)c1C(=O)O [R=CF3, X=OH, 1-methyl-3-(3-trifluoromethylphenyl)-4-hydroxypyrazole-5-carboxylic acid] | 
 | Cn1nc(-c2cccc(C(F)(F)F)c2)cc1C(N)=O [R=NH2] | Oral Percent Inhibition (xanthine oxidase [3]; dosage 90 mg·kg): 23.5%
 | COC(=O)c1cc(-c2cccc(C(F)(F)F)c2)nn1C [R=OCH3, methyl 1-methyl-3-(3-trifluoromethylphenyl)pyrazole-5-carboxylate] | Oral Percent Inhibition (xanthine oxidase [3]; dosage 24 mg·kg): 50%

SMILES | IC50 (xanthine oxidase [1]; [4]) | further results
Cn1nc(-c2cccc(C(F)(F)F)c2)cc1C(=O)O [R=3-CF3, R^1=H, 1-methyl-3-(3-trifluoromethylphenyl)pyrazole-5-carboxylic acid] | 0.0259 µM | selectivity ratio (oral LD50 in mice): 19.5; LD50 (oral LD50 in mice): 585 ± 45 mg/kg; ED50 [2]: 30 mg/kg
Cn1nc(-c2cccc(C(F)(F)F)c2)c(Br)c1C(=O)O [R=CF3, X=Br, 1-methyl-3-(3-trifluoromethylphenyl)-4-bromopyrazole-5-carboxylic acid] | 0.0573 µM | selectivity ratio (oral LD50 in mice): 27 to 45; LD50 (oral LD50 in mice): 300 to 500 mg/kg; ED50 [2]: 11 mg/kg
